Results: patent US20100022559A1, “BISOXIMES AS FUNGICIDES” (BAYER CROPSCIENCE AG, priority 2006, published 2010)

Assay: logP determination by HPLC on a reversed-phase column (C 18), EEC Directive 79/831 Annex V.A8
Format: physicochemical
Description: The stated logP values were determined in accordance with EEC Directive 79/831 Annex V.A8 by HPLC (high performance liquid chromatography) on a reversed-phase column (C 18). Temperature: 43° C.

[1] = method marker [a] (footnote not shown), isomer A / isomer B / isomer mixture as noted in the cell
[2] = method marker [b], isomer A / isomer B / isomer mixture as noted in the cell

For `CC(=NOCCCCCCON=C(C)c1cccc(C)n1)c1cccnc1` [compound 396], the logP (value marked [b]) was 3.15^b].

With `Cc1cccc(C(N)=NOCC(C)CON=C(N)c2cccc(C)n2)n1` (stereo not shown) [compound 689] the logP (method marked [b] in Table 1) was 2.71^[b].

In the case of `CC(=NOCC1(CON=C(C)c2ccc(C)c(C)n2)CC1)c1cccc(C)n1` [Compound 786], the logP (value marked [a]) was 3.99^[a], the logP (value marked [b]) was 3.99^[b] and the logP (value marked [c]) was 5.70^[c].

With `C=C(CON=C(c1cccc(C)n1)C1CC1)CON=C(c1cccc(C)n1)C1CC1` (single isomer, unassigned) [Compound 311] the logP (value marked [a]) was 3.29^[a] (isomer B).

With `CC(=NOCCCON=C(C)c1ccc(C)nc1)c1ccc(C)nc1` [compound 228] the logP [1] was 1.27^[a].

For `C=C(CON=C(C)c1cccc(C)n1)CON=C(C)c1cc(C(F)(F)F)cc(C)n1` [compound 211], the logP [2] was 5.70^[b].

In the case of `CC(=NOCC(C)CON=C(C)c1cccc(-c2cccc(C)n2)n1)c1cccc(-c2cccc(C)n2)n1` (stereo not shown) [compound 551], the logP (method marked [b] in Table 1) was 6.24^[b] and the logP (method marked [c] in Table 1) was 3.26^[c].

For `C=C(CON=C(CC)c1nc(C)c(C)c(C)n1)CON=C(CC)c1nc(C)c(C)c(C)n1` [compound 516], the logP (value marked [b]) was 4.07^[b].

With `CC(=NOCC(C)(C)CON=C(C)c1ccc(C)c(C)n1)c1ccc(C)c(C)n1` [Compound 278] the logP (value marked [a]) was 3.81^[a].

For `CCC(=NOCCCON=C(CC)c1ncccc1C)c1ncccc1C` (single isomer, unassigned) [compound 95], the logP [1] was 3.11^[a] (isomer A).

For `N/C(=N\OCCCCO/N=C(\N)c1ncc(F)cc1F)c1ncc(F)cc1F` [compound 38], the logP [2] was 2.45^[b].

With `CC(=NOCCCON=C(C)c1nc(C)cs1)c1cccc(C)n1` (mixture of isomers) [Compound 16] the logP [1] was 3.35^[a] and the logP (method marker [c] (footnote not shown)) was 4.47^[c].

With `CC(=NOCCON=C(C)c1nc(C)c(C)s1)c1nc(C)c(C)s1` [compound 50] the logP [2] was 4.35^[b].

With `CC(=NOCC(C)(C)CON=C(Cc1ccccc1)c1ncccc1C)c1cccc(C)n1` [compound 363] the logP (value marked [b]) was 5.71^[b].

With `Cc1cccnc1C(Cc1ccccc1)=NOCC(C)CON=C(Cc1ccccc1)c1ncccc1C` (single isomer, unassigned) [compound 109] the logP [1] was 6.00^[a] (isomer B).

With `CCCC(=NOCCCON=C(CCC)c1ncccc1C)c1ncccc1C` (single isomer, unassigned) [compound 98] the logP [1] was 4.83^[a] (isomer B).

With `CCC(CON=C(C)c1ccc(C)c(C)n1)CON=C(C)c1ccc(C)c(C)n1` (stereo not shown) [Compound 678] the logP (method marked [b] in Table 1) was 3.89^[b] and the logP (method marked [c] in Table 1) was 6.79^[c].

In the case of `CC(=NOCC1(CON=C(C)c2cc(C)cc(C)n2)CC(c2ccccc2)=NO1)c1cc(C)cc(C)n1` (stereo not shown) [compound 643], the logP (method marked [b] in Table 1) was 2.55^[b].

With `C=C(CON=C(C#N)c1cccc(C)n1)CON=C(C#N)c1cccc(C)n1` [Compound 784] the logP (value marked [a]) was 3.84^[a].

In the case of `Cc1cc(C)nc(C(N)=NOC/C=C/CON=C(N)c2cc(C)cc(C)n2)c1` (single isomer, unassigned) [compound 771], the logP (value marked [b]) was 2.70^[b] (isomer A).

With `C=C(CON=C(C)c1cccc(C)n1)CON=C(C)c1nc2ccccc2s1` [compound 218] the logP [2] was 4.79^[b].

With `CC(=NOCC(C)CON=C(C)c1nc(C)c(C)c(C)n1)c1nc(C)c(C)c(C)n1` (stereo not shown) [Compound 266] the logP (value marked [b]) was 3.41^[b].

In the case of `C/C(=N\OCC(C)(C)CON)c1cc(C)cc(C)n1` [XII-14], the logP ([a] acidic range, pH 2.3, 0.1% aqueous phosphoric acid and acetonitrile) was 0.8^[a], the logP ([b] LC-MS, acidic range, pH 2.7, 0.1% aqueous formic acid and acetonitrile) was 0.8^[b] and the logP ([c] LC-MS, neutral range, pH 7.8, 0.001 molar aqueous ammonium bicarbonate solution and acetonitrile) was 2.89^[c].

In the case of `Cc1nc(/C(N)=N/OCc2ccc(CO/N=C(\N)c3nc(C)c4c(n3)CCCC4)cc2)nc2c1CCCC2` [compound 717], the logP (method marked [b] in Table 1) was 3.09^[b].

In the case of `CC(=NOCC1OC(C)(C)OC1CON=C(C)c1cccc(C)n1)c1cccc(C)n1` (stereo not shown) [compound 215], the logP [2] was 3.09^[b].

For `Cc1cc(C)nc(C(Cl)=NOCC(C)CON=C(Cl)c2cc(C)cc(C)n2)c1` (stereo not shown) [compound 833], the logP (value marked [a]) was 4.17^[a].

With `CC(=NOCC(C)CON=C(C)c1cc(C)c(C)nn1)c1cc(C)c(C)nn1` (stereo not shown) [compound 309] the logP (value marked [b]) was 2.58^[b].

With `CC(=NOCC(C)CON=C(C)c1cccc(C2CC2)n1)c1cccc(C2CC2)n1` (stereo not shown) [compound 815] the logP (value marked [a]) was 7.36^[a].

For `COc1cc(O)nc(C(C)=NOCC(C)CON=C(C)c2nc(OC)cc(OC)n2)n1` (stereo not shown) [compound 271], the logP (value marked [b]) was 3.05^[b].

For `CCOC(=O)c1cccc(C(C)=NOCCCON=C(C)c2cccc(C(=O)OCC)n2)n1` [compound 257], the logP (value marked [a]) was 4.06^[a].

In the case of `CC(=NOCC(C)CON=C(C)c1cccc(C)n1)c1ccncc1` (stereo not shown) [compound 493], the logP (value marked [b]) was 2.04^[b].

In the case of `CC(=NOCC(F)CON=C(C)c1cccc(C)n1)c1cccc(C)n1` (stereo not shown) [Compound 212], the logP [2] was 2.94^[b].

With `CC(=NOCC(C)(C)CON=C(C)c1cc(C2CC2)cc(C)n1)c1cccc(C)n1` [Compound 818] the logP (value marked [a]) was 3.80^[a] and the logP (value marked [c]) was 6.57^[c].

In the case of `C=C(CON=C(C)c1cccc(C)n1)CON=C(C)c1cccnc1Cl` [compound 147], the logP [2] was 3.34^[b].

In the case of `CC(C)=CC1=NOC(CO/N=C(\C)c2ccc(C)c(C)n2)(CO/N=C(\C)c2ccc(C)c(C)n2)C1` [compound 636], the logP (method marked [b] in Table 1) was 3.46^[b].

With `CC(=NOCC(C)CON=C(C)c1sc(C)nc1C)c1sc(C)nc1C` (mixture of isomers) [compound 121] the logP [1] was 4.02^[a].

With `CC(=NOCC(C)CON=C(C)c1ccc2cccc(C)c2n1)c1ccc2cccc(C)c2n1` (stereo not shown) [compound 687] the logP (method marked [b] in Table 1) was 7.36^[b] and the logP (method marked [c] in Table 1) was 7.36^[c].

For `C=C(CON=C(C)c1cccc(C)n1)CON=C(N)c1nc(C)c(C(C)CC)c(C2CC2)n1` (stereo not shown) [Compound 244], the logP [2] was 3.99^[b].

For `CC(=NOCC1(CON=C(C)c2cccc(C)n2)CC(c2ccccc2)=NO1)c1cccc(C)n1` (stereo not shown) [Compound 593], the logP (method marked [a] in Table 1) was 3.74^[a].

In the case of `CC(=NOCC(C)(C)CON=C(C)c1ccc2c(n1)CCCC2)c1ccc2c(n1)CCCC2` [Compound 303], the logP (value marked [a]) was 5.49^[a].

With `CC(=NOCCCCON=C(C)c1cc2ccccc2o1)c1cccc(C)n1` [compound 381] the logP (value marked [b]) was 4.74^[b].

For `CC(=NOCCCCCCON=C(C)c1cc(C)cc(C)n1)c1cccc(C)n1` [Compound 460], the logP (value marked [b]) was 3.51^[b].

In the case of `CC(=NOCC(C)CON=C(C)c1cccc(C(F)F)n1)c1cccc(C(F)F)n1` (stereo not shown) [compound 306], the logP (value marked [a]) was 5.49^[a].

In the case of `COC(CON=C(C)c1cccc(C)n1)CON=C(C)c1cccc(C)n1` (stereo not shown) [Compound 294], the logP (value marked [b]) was 2.22^[b].

In the case of `Cc1cc(C)nc(/C(N)=N/OCc2ccccc2CO/N=C(\N)c2cc(C)cc(C)n2)c1` [compound 724], the logP (method marked [b] in Table 1) was 3.72^[b].

In the case of `CC(=NOCCCCCCON=C(C)c1nc(C)c(C)s1)c1cccc(C)n1` (single isomer, unassigned) [compound 539], the logP (method marked [b] in Table 1) was 4.86^[b] v(isomer B).

With `C=C(CON=C(C)c1cccc(C)n1)CON=C(N)c1cccc(C)n1` [Compound 23] the logP [2] was 2.75^[b].

In the case of `COc1c(Cl)cc(C(C)=NOCC(C)CON=C(C)c2cc(Cl)c(OC)c(C)n2)nc1C` (stereo not shown) [compound 839], the logP (value marked [b]) was 7.36^[b] and the logP (value marked [c]) was 7.36^[c].

In the case of `CC(=NOCC(C)(C)CON=C(C)c1cc(C2CC2)cc(C)n1)c1cc(C2CC2)cc(C)n1` [Compound 817], the logP (value marked [a]) was 3.27^[a] and the logP (value marked [c]) was 7.14^[c].

For `CCC(C)(CON=C(C)c1cccc(C)n1)CON=C(C)c1cccc(C)n1` (stereo not shown) [Compound 788], the logP (value marked [b]) was 5.73^[b] and the logP (value marked [c]) was 6.47^[c].

With `CC(=NOCC(CON=C(C)c1cccc(C)n1)C(C)C)c1cccc(C)n1` (stereo not shown) [Compound 680] the logP (method marked [b] in Table 1) was 5.03^[b] and the logP (method marked [c] in Table 1) was 6.40^[c].

In the case of `CC(=NOCC(C)(C)CON=C(C)c1ccccc1Cl)c1cccc(C)n1` [compound 413], the logP (value marked [b]) was 5.59^[b].

In the case of `CC(=NOCCCCON=C(c1cccc(C)n1)C(C)C)c1cccc(C)n1` (single isomer, unassigned) [compound 525], the logP (value marked [b]) was 3.65^[b] (isomer A).

In the case of `CCC(CC)(CON=C(C)c1nc(C)ccc1C)CON=C(C)c1nc(C)ccc1C` [compound 882], the logP (value marked [b]) was 3.90^[b] and the logP (value marked [c]) was 5.41^[c].

In the case of `CC(=NOCCCON=C(C)c1ccnc(C)n1)c1ccnc(C)n1` [compound 161], the logP [1] was 3.06^[a].

With `Cc1cccc(C(=NOCC2(CON=C(c3cccc(C)n3)C3CC3)CC(c3ccc(Cl)cc3)=NO2)C2CC2)n1` (stereo not shown) [compound 649] the logP (method marked [a] in Table 1) was 4.53^[a].

In the case of `CC(=NOCC(CON=C(C)c1nc(C)ccc1C)Cc1ccccc1)c1cccc(C)n1` (stereo not shown) [compound 591], the logP (method marked [b] in Table 1) was 3.40^[b] and the logP (method marked [c] in Table 1) was 5.07^[c].

In the case of `CCCC(=NOCCCON=C(CCC)c1cccc(C)n1)c1cccc(C)n1` [Compound 91], the logP [1] was 5.83^[a].

With `CC(=NOCC(C)(C)CON=C(C)c1ccc(Cl)s1)c1cccc(C)n1` [Compound 486] the logP (value marked [b]) was 5.84^[b].

With `CCC1=NOC(CON=C(c2cccc(C)n2)C2CC2)(CON=C(c2cccc(C)n2)C2CC2)C1` (stereo not shown) [compound 652] the logP (method marked [a] in Table 1) was 2.95^[a].

With `CC(=NOCC(C)(C)CON=C(C)c1ncccc1C)c1cccc(C)n1` [compound 490] the logP (value marked [b]) was 3.89^[b].

In the case of `CC(=NOCCCCON=C(C)c1cccc(Cc2ccccc2)n1)c1cccc(C)n1` [compound 324], the logP (value marked [b]) was 5.84^[b].

With `CC(=NOCC1(CON=C(C)c2ccc(C)c(C)n2)CC1)c1ccc(C)c(C)n1` [Compound 315] the logP (value marked [b]) was 2.84^[b] and the logP (value marked [c]) was 6.08^[c].

With `C/C(=N\OCC(C)CO/N=C(\C)c1cncc(C)n1)c1cccc(C)n1` (stereo not shown) [compound 505] the logP (value marked [b]) was 3.85^[b].

In the case of `Cc1cc(C)nc(/C(N)=N/OCc2cccc(CO/N=C(\N)c3nc(C)cc(C)n3)c2)n1` [compound 701], the logP (method marked [b] in Table 1) was 2.13^[b].

For `CCCC1=NOC(CON=C(C)c2cc(C)cc(C)n2)(CON=C(C)c2cc(C)cc(C)n2)C1` (stereo not shown) [compound 640], the logP (method marked [b] in Table 1) was 2.20^[b].

With `C=C(CON=C(C)c1cccc(C)n1)CON=C(CC(C)C)c1cccc(C)n1` [compound 356] the logP (value marked [b]) was 5.52^[b].

With `CC(=NOCCC(C)ON=C(C)c1nc(C)ccc1C)c1nc(C)ccc1C` (single isomer, unassigned) [compound 758] the logP (method marked [b] in Table 1) was 2.13^[b] and the logP (method marked [c] in Table 1) was 4.03^[c].
